In PubChem BioAssay (NCI):
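Where inhibition never reached the appropriate level, the endpoint shown equals the highest concentration tested. Otherwise, values were interpolated linearly from a five-concentration, 48-hour dose response in 96-well plates. Here, GI50 denotes the concentration required for 50% inhibition of growth. At the TGI there is no net growth.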 Where a SMILES comes first, the peptide text is derived from it. [ ]: non-standard residue; d: D form. The star is where a group is joined. ξ: configuration not given here. NMeN = CN[C@@H](CC(N)=O)C(=O)O; NMeV = CN[C@H](C(=O)O)C(C)C; ξNMeV = CNC(C(=O)O)C(C)C; Boc = CC(C)(C)OC(=O)*; ξNMeA = CNC(C)C(=O)O

Key:
Test in all cases: NCI-60 cell line screen, 48 h
[1] = system: DLD-1 colon
[2] = system: HOP-18 NSCLC
[3] = system: LXFL 529 NSCLC
[4] = system: M19-MEL melanoma
[5] = system: SNB-78 CNS
[6] = system: DMS 273 small cell lung
[7] = system: NCI/ADR-RES ovarian
[8] = system: DU-145 prostate
[9] = system: PC-3 prostate

| Compound | TGI [1] | TGI [2] | TGI [3] | TGI [4] | TGI [5] | GI50 [1] | GI50 [2] | GI50 [3] | GI50 [4] | GI50 [5] | TGI [6] | TGI [7] | TGI [8] | TGI [9] | GI50 [6] |
| --- | --- | --- | --- | --- | --- | --- | --- | --- | --- | --- | --- | --- | --- | --- | --- |
| O=C1c2ccccc2C2(O)NC(=S)N(c3ccccc3)C12O (configuration not stated) | > 100 µM | > 100 µM | > 100 µM | > 100 µM | > 100 µM |  |  |  |  |  |  |  |  |  |  |
| CCC[CH2][Sn]([CH2]CCC)([O]C(=O)C(N)CSC)[O]C(=O)C(N)CSC (configuration not stated) | 18.3 µM | 21.8 µM | 3.49 µM | 19.5 µM | 9.64 µM | 6.44 µM | 10.2 µM | 0.969 µM | 6.65 µM | 3.17 µM |  |  |  |  |  |
| CC(=O)/C(=C\C1=CCCO1)C(=O)Nc1ccccc1C | > 100 µM | > 100 µM | > 100 µM | > 100 µM | > 100 µM |  |  |  |  |  |  |  |  |  |  |
| NC(=S)N/N=C(\C(=O)Nc1cccc([N+](=O)[O-])c1)c1nc2ccc([N+](=O)[O-])cc2[nH]c1=O | > 100 µM | > 100 µM | > 100 µM | > 100 µM |  |  |  |  |  |  | > 100 µM |  |  |  |  |
| CCCCCCCCCCC(O)C1CCC(C(O)CCC(O)C2CCC(CCCCCCC[C@H](O)CC3=C[C@@H](C)OC3=O)O2)O1 (some centres not stated) | > 100 µM | > 100 µM | > 100 µM | > 100 µM | > 100 µM |  |  |  |  |  | > 100 µM | 8.23 µM |  |  |  |
| O=c1ccnc2c1ccc1[nH]cccc12 | > 100 µM | > 100 µM | > 100 µM | > 100 µM | > 100 µM |  |  |  |  |  | > 100 µM |  |  |  |  |
| COc1cc(C=Nc2ccc(C(C)C)cc2)cc(OC)c1OC | > 100 µM | > 100 µM | > 100 µM | > 100 µM | > 100 µM |  |  |  |  |  | > 100 µM |  |  |  |  |
| COc1ccc2cc3[n+](cc2c1OC)CCc1cc(O)c(O)cc1-3 | > 100 µM |  | > 100 µM | > 100 µM | > 100 µM |  |  |  |  |  | > 100 µM |  |  |  |  |
| CSc1nc(NC(=O)O)c(N(C(C)=O)C(=O)O)c(=O)n1C | > 100 µM |  | > 100 µM | > 100 µM | > 100 µM |  |  |  |  |  | > 100 µM |  |  |  |  |
| COc1ccc(C(=O)OC2C=COC(C)C2OC(=O)c2ccc(OC)cc2)cc1 (configuration not stated) | > 52.8 µM | > 61.1 µM | 28.1 µM | > 100 µM | > 100 µM |  |  |  |  |  | 73.6 µM |  |  |  |  |
| COc1cc(C(=O)C/C(CCC(=O)Nc2ccc(Cl)cc2C)=N/NC(=O)C(N)=O)ccc1O | > 100 µM | > 100 µM | > 100 µM | > 100 µM | > 100 µM |  |  |  |  |  | > 100 µM |  |  |  |  |
| CCOC(=O)NC(=O)c1cn(CCCOC(=O)CCCCCCCCCCC(=O)OCCCn2cc(C(=O)NC(=O)OCC)c(=O)n(C)c2=O)c(=O)n(C)c1=O | > 100 µM | > 100 µM | > 100 µM | > 100 µM | > 100 µM |  |  |  |  |  | > 100 µM |  |  |  |  |
| COC(=O)C12CC3CC(C1)CC(C(=O)OC)(C3)C2 | > 100 µM | > 100 µM | > 100 µM | > 100 µM | > 100 µM |  |  |  |  |  | > 100 µM |  |  |  |  |
| CN(C)CC/C(=N\Nc1ccccc1)c1ccccc1 | > 100 µM | > 100 µM |  | 77.9 µM | 89.7 µM |  |  |  |  |  |  |  |  |  |  |
| COC(=O)C(=O)C(C#N)c1ccc(CC#N)cc1 (configuration not stated) | > 100 µM |  | > 100 µM | > 100 µM | > 100 µM |  |  |  |  |  | > 100 µM |  |  |  |  |
| CCCN1CN(C(C(=O)N[C@@H]2C(=O)N3C(C(=O)O)=C(C)CSC23)c2ccc(O)cc2)CSC1=S (some centres not stated) | > 100 µM | > 100 µM | > 100 µM | > 100 µM | > 100 µM |  |  |  |  |  | > 100 µM |  |  |  |  |
| Nc1nc(=S)[nH]c(C(=O)Nc2ccc(Cl)c(Cl)c2)c1-c1ccc(Cl)cc1 | > 100 µM | > 100 µM | > 100 µM | > 100 µM |  |  |  |  |  |  |  |  |  |  |  |
| COC(=O)C(C)N(C)C(=O)[C@H](CC(N)=O)N(C)C(=O)[C@@H]1CCCN1C(=O)[C@H](C(C)C)N(C)C(=O)C(C(C)C)N(C)C(=O)[C@@H](NC(=O)OC(C)(C)C)C(C)C (some centres not stated) (Boc-V[ξNMeV][NMeV]P[NMeN][ξNMeA]-OMe) | > 100 µM | > 100 µM | > 100 µM | > 100 µM | > 100 µM |  |  |  |  |  | > 100 µM | > 50 µM | > 50 µM | 50 µM |  |

| Compound | TGI [1] | TGI [2] | TGI [3] | TGI [4] | TGI [5] | GI50 [1] | GI50 [2] | GI50 [3] | GI50 [4] | GI50 [5] | TGI [6] | TGI [7] | TGI [8] | TGI [9] | GI50 [6] |
| --- | --- | --- | --- | --- | --- | --- | --- | --- | --- | --- | --- | --- | --- | --- | --- |
| CCCC(C)C[C@@H](C)CC(C)/C=C(\C)c1oc(=O)c(C)c(O)c1C (some centres not stated) (tested in a mixture with another compound) | 27.8 µM |  | 25.9 µM |  | 45.9 µM |  |  |  |  |  | 32.4 µM |  |  |  |  |
| CCN(CC)CCNC(=O)c1nn(C)c(=S)[nH]c1=S | > 100 µM | > 100 µM | > 100 µM | > 100 µM | > 100 µM |  |  |  |  |  | > 100 µM |  |  |  |  |
| C1CCN(C2OC3C(COC3N3CCCCC3)OC2OC2CCO[C@@H]2N2CCCCC2)CC1 (some centres not stated) | > 100 µM |  | 68.5 µM |  | 56.1 µM |  |  |  |  |  | > 100 µM |  |  |  |  |
| CC/C(=C(/CC)c1ccc(O)cc1)c1ccc([O-])cc1.CC/C(=C(/CC)c1ccc(O)cc1)c1ccc([O-])cc1.O=C([CH-]C(=O)c1ccccc1)c1ccccc1.O=C([CH-]C(=O)c1ccccc1)c1ccccc1.[Ti+4] | 28.9 µM | 39.3 µM |  |  | > 100 µM | 10.8 µM | 24.4 µM |  |  | 27.1 µM | > 100 µM |  |  |  | 16.3 µM |
| O=C(O)CC12C3C4C5C3C1C5C42 (configuration not stated) | > 100 µM |  | > 100 µM | > 100 µM | > 100 µM |  |  |  |  |  | > 100 µM |  |  |  |  |
| COC(=O)C12C3C4C5C3(C#N)C1C5(C(=O)OC)C42C(=O)N(C(C)C)C(C)C (configuration not stated) | > 70.6 µM | > 100 µM | > 100 µM | > 100 µM | > 100 µM |  |  |  |  |  | > 59.3 µM |  |  |  |  |
| CCOC(=O)C1=C(Nc2ccc(Cl)cc2Cl)OC/C1=N\NS(=O)(=O)c1ccc(C)cc1 | > 100 µM | > 100 µM | > 100 µM | > 100 µM | > 100 µM |  |  |  |  |  | > 100 µM |  |  |  |  |
| COC1OC(C)C(O)CC1OS(=O)(=O)c1ccc(C)cc1 (configuration not stated) |  | > 100 µM | > 100 µM | > 100 µM | > 100 µM |  |  |  |  |  | > 100 µM |  |  |  |  |
| CCCCc1ccc(-n2c3nc(=O)n(C)c(=O)c-3nc3ccccc32)cc1 |  | 22.7 µM | 30.4 µM | 2.87 µM | 39 µM |  |  |  |  |  | 26.4 µM |  |  |  |  |
| NC1CCCCC1N.O=S(=O)([O-])CCCN1CCOCC1.O=S(=O)([O-])CCCN1CCOCC1.[Pt+4] | > 100 µM | > 89.2 µM | > 100 µM | > 100 µM | > 100 µM | 28.3 µM | 16 µM | 27.4 µM | 4.52 µM | > 100 µM | > 100 µM |  |  |  | 4.87 µM |
| Cc1ccc(NC(=O)CC(=O)n2nc(-c3ccccc3)c(N=Nc3ccccc3Cl)c2-c2ccccc2)cc1 |  | > 100 µM | > 100 µM | > 100 µM |  |  |  |  | > 100 µM |  | > 100 µM |  |  |  |  |
| CC[O-].CC[O-].O=C1C(c2ccccc2)=C([O-])c2ccccc21.O=C1C(c2ccccc2)=C([O-])c2ccccc21.[Ti+4] | > 100 µM | > 100 µM | > 100 µM | > 100 µM | > 100 µM | > 100 µM | > 100 µM | > 100 µM | > 100 µM | > 100 µM | > 100 µM |  |  |  | > 100 µM |
| C[C@]12CC[C@H](OCCC#N)CC1=CC[C@@H]1C2CC[C@]2(C)/C(=N/OCCC#N)CCC12 (some centres not stated) | > 100 µM | > 100 µM | > 100 µM | > 100 µM | > 90 µM |  |  |  |  |  | > 100 µM |  |  |  |  |
| Cc1nc2cc(N)c(F)cc2[nH]1 | > 100 µM |  | > 100 µM | > 100 µM | > 100 µM |  |  |  |  |  | > 100 µM |  |  |  |  |
| Cc1ccc(/C=C/C(=O)c2sc(-c3cccnc3)nc2C)cc1 | > 100 µM | > 100 µM |  | > 100 µM | > 100 µM |  |  |  |  |  | > 100 µM |  |  |  |  |
| Nc1ncn(C2C=C(CO)C(O)C2O)c(=O)n1 (configuration not stated) | > 100 µM | > 100 µM | > 100 µM | > 100 µM | > 100 µM |  |  |  |  |  | > 100 µM |  |  |  |  |
| O=c1[nH]c2c3ccccc3ccc2c2cc3c(cc12)OCO3 | > 100 µM | > 100 µM | > 100 µM | > 100 µM | > 100 µM |  |  |  |  |  | > 100 µM |  |  |  |  |
